The target in assay [1] is T1, CAAX farnesyltransferase (Rattus norvegicus, UniProt Q02293+Q04631). Nature of the assay: In vitro farnesylation of the compound by CAAX farnesyltransferase (substrate test, thin layer chromatography). The settings on record: relative to tetrapeptide CVIM, 3.6 μM, 37° C., 30 min; for % farnesylation "A": diastereomer A; for % farnesylation "B": diastereomer B. It is filed as biochemical. As to the method: After incubation at 37° C. for 30 min, the reaction was stopped by addition of 2 μl of 250 mM EDTA, and the entire reaction mixture was spotted onto a plastic-backed Silica Gel G thin layer sheet (20×20 cm, Brinkmann Inst.) and placed in a tank containing n-propyl alcohol/ammonium hydroxide/water (6:3:1 v/v/v).
T1 sequence (Q02293 whole entry, one chain of several): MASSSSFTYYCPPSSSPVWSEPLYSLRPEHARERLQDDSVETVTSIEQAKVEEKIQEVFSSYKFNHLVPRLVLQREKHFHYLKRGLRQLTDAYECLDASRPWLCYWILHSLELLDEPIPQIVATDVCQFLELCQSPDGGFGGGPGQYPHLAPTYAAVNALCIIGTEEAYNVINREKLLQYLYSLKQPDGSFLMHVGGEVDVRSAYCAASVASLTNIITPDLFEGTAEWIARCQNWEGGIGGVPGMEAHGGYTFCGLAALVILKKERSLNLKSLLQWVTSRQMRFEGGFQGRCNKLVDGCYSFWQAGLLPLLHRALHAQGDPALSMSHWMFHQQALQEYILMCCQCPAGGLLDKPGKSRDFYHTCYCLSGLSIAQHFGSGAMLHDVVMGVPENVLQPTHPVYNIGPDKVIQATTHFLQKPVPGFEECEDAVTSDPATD

The target in assay [2] is T1, CAAX farnesyltransferase. In words: In vitro inhibition of CAAX farnesyltransferase. Type of assay: biochemical. The arrangement: purified to homogeneity from rat brain homogenates; from tissue; host or cells: rat brain; alternatively recombinant enzyme from a baculovirus expression system. The settings on record: Table D. On the procedure: All compounds were tested for in vitro inhibition of CAAX protein farnesyltransferase. […] Alternatively, recombinant CAAX protein farnesyltransferase was also used in this assay. […] Seventy-two hrs after infection, the cells were harvested and disrupted and the enzyme isolated by chromatography on Q-Sepharose.
After incubation for 30 min at 37° C., the amount of [3H]famesyl group transferred to p21H-ras was measured by precipitation with SDS/trichloroacetic acid, filtration onto nitrocellulose, and scintillation counting.
Structures of the compounds tested are reproduced below. Compound numbers also refer to example numbers above.

Where [3] appears, read: diastereomer A, read-out: EC50 (μM) "A".
Where [4] appears, read: diastereomer B, read-out: EC50 (μM) "B".

Read-outs that look alike come from different tables or passages of the source. A value given as a limit tells only on which side of the number the result lay.

On to `CSCC[C@H](NC(=O)CN1C(=O)C(NC(=O)[C@@H](N)CS)N=C(c2ccccc2)c2ccccc21)C(=O)O` (stereo partly drawn) [compound 28, N-[[3-[(2-amino-3-mercapto-1-oxopropyl)amino]-2,3-dihydro-2-oxo-5phenyl-1H-1,4-benzodiazepin-1-yl]acetyl]-L-methionine], for which, on CAAX farnesyltransferase [1], the “% farnesylation "A"” value was 9% and the “% farnesylation "B"” value is less than 1%. Also, the EC50 on CAAX farnesyltransferase [2] (setting [3]) stood at 0.38 µM. In addition, the EC50 at CAAX farnesyltransferase [2] (setting [4]) came to 0.431 µM.
The like results for `COC(=O)[C@H](CCSC)NC(=O)CN1C(=O)C(N(C)C(=O)[C@@H](N)CS)N=C(c2ccccc2)c2ccccc21` (stereo partly drawn) [compound 37] were, in that order, less than 1%, 2%, 0.19 µM and 0.05 µM.
On to `CC(C)C[C@H](NC(=O)CN1C(=O)C(N(C)C(=O)[C@@H](N)CS)N=C(c2ccccc2)c2ccccc21)C(=O)O` (stereo partly drawn) [compound 31, N-[[3-[(2-amino-3-mercapto-1-oxopropyl)methylamino]-2,3-dihydro-2-oxo-5-phenyl-1H -1,4-benzodiazepin-1-yl]acetyl]-L-leucine], for which, on CAAX farnesyltransferase [1], the “% farnesylation "A"” value was less than 1%. The “% farnesylation "B"” value at CAAX farnesyltransferase [1] is given as less than 1%. For the same compound, the half-maximal effective concentration (EC50) on CAAX farnesyltransferase [2] (setting [3]) worked out at 0.084 µM; on CAAX farnesyltransferase [2] (setting [4]), 0.0021 µM.
As to `CC(C)C[C@H](NC(=O)CN1C(=O)C(N(C)C(=O)[C@@H](N)CS)N=C(c2ccccc2)c2ccccc21)c1nnn[nH]1` (stereo partly drawn) [compound 46, N-[[3-[(2-amino-3-mercapto-1-oxopropyl)methylamino]-2,3-dihydro-2-oxo-5-phenyl-1H-1,4-benzodiazepin-1-yl]acetyl]-L-leucine tetrazole], at CAAX farnesyltransferase [1], the “% farnesylation "B"” value is given as less than 1%. Moreover, the concentration giving a half-maximal response (EC50) is 0.26 µM at CAAX farnesyltransferase [2] (setting [3]) and 0.0016 µM at CAAX farnesyltransferase [2] (setting [4]).
On to `CSCC[C@H](NC(=O)CN1C(=O)C(N(C)C(=O)[C@H](CS)NC(C)=O)N=C(c2ccccc2)c2ccccc21)C(=O)O` (stereo partly drawn) [compound 32, N-[[3-[(2-acetylamino-3-mercapto-1-oxopropyl)methylamino]-2,3-dihydro-2-oxo-5-phenyl-1H-1,4-benzodiazepin-1-yl]acetyl]-L-methionine], for which, on CAAX farnesyltransferase [1], the “% farnesylation "A"” value was 110% and the “% farnesylation "B"” value is on record as less than 1%. In addition, the EC50 at CAAX farnesyltransferase [2] (setting [3]) amounted to 1.2 µM. Further, the concentration giving a half-maximal response (EC50) on CAAX farnesyltransferase [2] (setting [4]) worked out at 8 µM.
Taken in the same sequence, the figures for `CSCC[C@H](NC(=O)CN1C(=O)C(NC(=O)[C@@H](N)CS)CCc2ccccc21)C(=O)O` (stereo partly drawn) [compound 10] were 20%, less than 1%, 1.6 µM and 1.4 µM.
Taken in the same sequence, the figures for `CSCC[C@H](NC(=O)CN1C(=O)C(N(C)C(=O)[C@@H](N)CS)N=C(c2ccccc2)c2ccccc21)C(=O)O` (stereo partly drawn) [compound 27, N-[[3-[(2-amino-3-mercapto-1-oxopropyl)methylamnino]-2,3-dihydro-2-oxo-5-phenyl-1H -1,4-benzodiazepin-1-yl]acetyl]-L-methionine] were 5%, less than 1%, 0.8 µM and 0.0003 µM.
The like results for `CSCC[C@H](NC(=O)CN1C(=O)C(N(C)C(=O)CCS)N=C(c2ccccc2)c2ccccc21)C(=O)O` (stereo partly drawn) [compound 29] were, in that order, less than 1%, less than 1%, 1.8 µM and 1.8 µM.
With `CN(C(=O)[C@@H](N)CS)C1N=C(c2ccccc2)c2ccccc2N(CC(=O)N[C@@H](Cc2ccccc2)C(=O)O)C1=O` (stereo partly drawn) [compound 34, N-[[3-[(2-amino-3-mercapto-1-oxopropyl)methylamino]-2,3-dihydro-2-oxo-5-phenyl-1H-1,4-benzodiazepin-1-yl]acetyl]-L-phenylalanine], the “% farnesylation "B"” value on CAAX farnesyltransferase [1] is given as less than 1%. The EC50 on CAAX farnesyltransferase [2] (setting [3]) worked out at 0.54 µM; on CAAX farnesyltransferase [2] (setting [4]) it was 0.0005 µM.
As to `CN(C(=O)[C@@H](N)CS)C1N=C(c2ccccc2)c2ccccc2N(CC(=O)N[C@@H](CO)C(=O)O)C1=O` (stereo partly drawn) [compound 30], the “% farnesylation "A"” value at CAAX farnesyltransferase [1] was less than 1%. Besides, the “% farnesylation "B"” value at CAAX farnesyltransferase [1] is recorded as less than 1%. The EC50 on CAAX farnesyltransferase [2] (setting [3]) turned out to be 10 µM; at CAAX farnesyltransferase [2] (setting [4]), 0.0084 µM.
Consider `CSCC[C@H](NC(=O)CN1C(=O)C(N(C)C(=O)[C@@H](N)CS)CCc2ccccc21)C(=O)O` (stereo partly drawn) [compound 9], for which, on CAAX farnesyltransferase [1], the “% farnesylation "A"” value was less than 1% and the “% farnesylation "B"” value is given as less than 1%. Further, the EC50 at CAAX farnesyltransferase [2] (setting [3]) was found to be 1.2 µM. Also, the EC50 on CAAX farnesyltransferase [2] (setting [4]) came to 0.024 µM.
On to `CSCC[C@H](NC(=O)CN1C(=O)C(N(C)C(=O)[C@@H](N)CS)N=C(c2ccccc2)c2ccccc21)c1nnn[nH]1` (stereo partly drawn) [compound 47, N-[[3-[(2-amino-3-mercapto-1-oxopropyl)methylamino]-2,3-dihydro-2-oxo-5-phenyl-1H-1,4-benzodiazepin-1-yl]acetyl]-L-methionine tetrazole], for which the 50% effective concentration (EC50) on CAAX farnesyltransferase [2] (EC50 (μM) "A", diastereomer A) came out at 0.044 µM; at CAAX farnesyltransferase [2] (EC50 (μM) "B", diastereomer B) it was 0.0046 µM.
For `CSCC[C@@H](C(=O)O)N(C)C(=O)CN1C(=O)C(N(C)C(=O)[C@@H](N)CS)N=C(c2ccccc2)c2ccccc21` (stereo partly drawn) [compound 64, N-[[3-[(2-amino-3-mercapto-1-oxopropyl)methylamino]-2,3-dihydro-2-oxo-5-phenyl-1H-1,4-benzodiazepin-1-yl]acetyl]-(N-methyl)-L-methionine], the figures for the half-maximal effective concentration (EC50) at CAAX farnesyltransferase [2] (setting [3]) and on CAAX farnesyltransferase [2] (setting [4]) were 0.26 µM and 0.002 µM, respectively.
Turning to `CSCC[C@H](NC(=O)CN1C(=O)C(N(C)C(=O)[C@@H](N)CSSC(C)(C)C)N=C(c2ccccc2)c2ccccc21)C(=O)OC(C)(C)C` (stereo partly drawn) [compound 118, N-[[3-[(2-amino-3-tert-butylthiomercapto-1-oxopropyl)methylamino]-2,3-dihydro-2-oxo-5-phenyl-1H-1,4-benzodiazepin-1-yl]acetyl]-L-methionine tert-butyl ester], the concentration for a half-maximal effect (EC50) on CAAX farnesyltransferase [2] (setting [4]) turned out to be 0.9 µM.
As to `CN(C(=O)[C@@H](N)CS)C1N=C(c2ccccc2)c2ccccc2N(CC(=O)N(CC(=O)O)Cc2ccccc2)C1=O` (stereo partly drawn) [compound 66], the EC50 at CAAX farnesyltransferase [2] (setting [3]) turned out to be 2.4 µM; at CAAX farnesyltransferase [2] (setting [4]) it was 0.0006 µM.
Regarding `CSCC[C@H](NC(=O)CN1C(=O)C(N(C)C(=O)C2CSC(C)N2)N=C(c2ccccc2)c2ccccc21)C(=O)O` (stereo partly drawn) [compound 43, N-[[3-[(2-methylthiazolidine-4-carboxyl)methylamino] -2,3-dihydro-2-oxo-5-phenyl-1H-1,4-benzodiazepin-1-yl]acetyl]-L-methionine], at CAAX farnesyltransferase [1], the “% farnesylation "A"” value is reported as less than 1% and the “% farnesylation "B"” value is recorded as less than 1%. In addition, on CAAX farnesyltransferase [2] (setting [3]), the EC50 stood at 0.32 µM. At CAAX farnesyltransferase [2] (setting [4]), the EC50 came out at 0.006 µM.
Regarding `C[C@@H](O)[C@H](NC(=O)CN1C(=O)C(N(C)C(=O)[C@@H](N)CS)N=C(c2ccccc2)c2ccccc21)C(=O)O` (stereo partly drawn) [compound 51, N-[[3-[(2-amino-3-mercapto-1-oxopropyl)methylamino]-2,3-dihydro-2-oxo-5-phenyl-1H-1,4-benzodiazepin-1-yl]acetyl]-L-threonine], the results for the concentration giving a half-maximal response (EC50) on CAAX farnesyltransferase [2] (setting [3]) and at CAAX farnesyltransferase [2] (setting [4]) were greater than 3 µM and 0.0017 µM, respectively.
Taken in the same sequence, the figures for `CSCC[C@H](NC(=O)CN1C(=O)C(N(C)C(=O)[C@@H](N)CS)N=C(c2ccccc2)c2ccccc21)C(=O)OC1CCCCC1` (stereo partly drawn) [compound 41] were 4.2 µM and 0.074 µM.

Broadly, the EC50 is the concentration that produces a half-maximal response.

The values above are taken from patent US5843941A, “Ras farnesyl transferase inhibitors” (Genentech, Inc., priority 1994, dated 1998).
